Key:
guinea pigs' skin = test: Blocking effects against UV ray irradiated on guinea pigs' skin; type: in vivo, male Hartley guinea pigs; settings: for UV ray blocking effect score: total score for 2.5% and 5% ointments, 6 irradiated sites each scored 0-4, complete blocking = 24, UV 3000 Lux for 90 s, read 24 hours after irradiation
Protocol: Each compound of the present invention and commercially available p-methoxy cinnamic acid-2-ethyl hexyl as a positive reference were mixed with an ointment base (Plastibase), and 2.5% (mass % of active ingredient) and 5% ointment were prepared for each. The belly area of male Hartley guinea pigs that were 6 to 10 weeks old was shaved, and then further close shaved using an electric shaver. The test animals were then anaesthetized by injecting pentobarbital sodium (30 mg/kg) in their abdominal cavity. Then, 100 mg of the base material, 2.5% ointment and the 5% ointment were respectively spread in 6 to 7 cm long/15 cm wide areas of the shaved belly area of the test animal starting from its head. 10 minutes after spreading, the skin was covered with a piece of felt in which 9 holes (3×3) with 1 cm diameter had been made. A UV ray (3000 Lux) was then irradiated for a 90 second period. 24 hours after the irradiation, the intensity of the red circular marks that had been produced were observed, and the blocking effect investigated. Note that, the evaluation of the UV ray blocking effect was carried out in accordance with the following evaluation criteria (score based on 5 level evaluation).
In advance, 99 types of related compound were prepared using the test method described above as 10% ointments including the compounds of the present invention (the compounds expressed by formula I) and the compounds that are the active ingredient of the UV ray protection agent of the present invention (the compounds expressed by formula I′). A screening test was performed, and 9 compounds that 100% blocked the UV rays selected. Then, lower concentration ointments were prepared for these 9 compounds and an investigation was carried out to test the UV ray protection effect thereof. Note that, as a reference compound, the results for p-methoxy cinnamic acid ethyl hexyl that is used as the active ingredient in commercially sold UV ray protection agents are also shown.

mice = test: Acute toxicity resulting from single under skin injection in mice; type: in vivo, male ddY mice; settings: single under skin injection 1 g/kg; for Case of death: groups of five mice; for Case of death / Observed items: observed 1 week; for body weight of the mice following injection: weighed on days 1, 3, 6, 7
Protocol: (§1) An investigation was carried out using 5 week old male ddY mice.
(§2) Each compound (250 mg) was placed in suspension using the same amount of Tween-80, and then diluted with physiologic saline (5 mL) to form a 5% suspension. Then, supersonic treatment was performed to create the specimen. 0.2 mL/10 g (1 g/kg) of the specimen was injected per body weight under the skin of the back portion of each mouse in groups of five mice. The behavior of the mice was then observed for 1 week after injection while the mice were fed. The body weight of the mice was measured on the 1st, 3rd, 6th and 7th days. After one week, an abdominal section was performed, and changes in the various internal organs and abnormality of the injected area checked for.

[1] = as above; type: in vivo, male ddY mice; settings: male, ddY, mouse, in vivo, subcutaneous, 1 g/kg; single under skin injection, mice
Protocol: as §1, §2

| Compound | UV ray blocking effect score (guinea pigs' skin) | Case of death (mice) | Observed items (mice) | body weight of the mice following injection (mice) | LD50 at 1 week [1] | body weight by the 7th day following injection (mice) | UV ray protection effect (in words) (guinea pigs' skin; 2.5% and 5% ointments, comparison within Table 1) |
| --- | --- | --- | --- | --- | --- | --- | --- |
| O=C(Oc1ccc2ccccc2c1)c1ccccc1F [CU-10005] | 7 | 0/5 | No abnormalities | increased following injection in the same manner as the body weight of the mice in a reference group | ≥ 1000 mg/kg |  |  |
| Cc1ccc(OC(=O)c2ccc3ccccc3c2)cc1 [CU-5004, p-tolyl-2-naphthyl carboxylate] | 20 | 0/5 | Weight reduction | decreased | ≥ 1000 mg/kg | recovered to its level at the time of the first injection |  |
| COc1cccc(C(=O)Oc2ccccc2C)c1 [CU-2102] | 15 |  |  |  |  |  |  |
| C/C=C/C(=O)Nc1ccccc1C(=O)O [CU-1008] | 20 |  |  |  |  |  |  |
| COc1ccc(C(=O)Oc2ccc(C)cc2)cc1 [CU-5009, p-tolyl anisate] | 19 | 0/5 | Weight reduction | decreased | ≥ 1000 mg/kg | recovered to its level at the time of the first injection |  |
| CCCCC(CC)COC(=O)C=Cc1ccc(OC)cc1 (stereo not drawn) [p-Methoxy-cinnamic acid-2-ethyl hexyl, reference compound] | 18 |  |  |  |  |  |  |
| O=C(Oc1cccc2ccccc12)c1ccccc1F [CU-9005] | 24 |  |  |  |  |  | strongest UV ray protection effect |
| Cc1ccc([N+](=O)[O-])cc1OC(=O)C=Cc1ccccc1 [CU-11005] | 12 |  |  |  |  |  |  |
| COc1cccc(C(=O)Oc2ccc(C)cc2)c1 [CU-5008] | 13 | 0/5 | Weight reduction | decreased | ≥ 1000 mg/kg | recovered to its level at the time of the first injection |  |
| Cc1ccccc1OC(=O)c1ccc2ccccc2c1 [CU-2010, o-tolyl-2-naphthyl carboxylate] | 21 |  |  |  |  |  |  |

Source: patent publication US7361785B2, “Compound protecting against ultraviolet rays” (Lead Chemical Co., Ltd., priority 2002, dated 2008)
